Data published in article PMC7617869, “Molecular glues that inhibit deubiquitylase activity and inflammatory signaling” (Nature Structural & Molecular Biology, 2025).

Key:
[1] = biological target: BRISC BRCC45 F140A (Homo sapiens, UniProt P46736+Q15018+Q9NXR7, F140A); test: BRISC mutant IQF assay: BRCC45 F140A; format: biochemical
Description: (§1) IQF assays were performed in DUB reaction buffer containing 50 mM HEPES–NaOH pH 7.0, 100 mM NaCl, 0.1 mg ml^−1 BSA, 1 mM DTT and 0.03% v/v Brij-35. […] The final concentration of BRISC WT, all BRISC mutants, HsBRISCΔLoop, MmBRISC and DrBRISCΔNΔC was 1 nM. Other enzymes were tested at the following concentrations: 5 nM ARISC (FL), 10 nM CfBRISCΔNΔC, 250 nM AMSH* (ref. [43]), 500 nM USP2 and 1 μM trypsin (Sigma, 9002-07-7). For Michaelis–Menten experiments, 1 nM BRISC with 0–1 μM IQF K63-linked diubiquitin substrate was used. Michaelis–Menten analyses and Lineweaver–Burk plots were calculated using GraphPad Prism (version 9.0).
(§2) To assess enzymatic activity, BRISC complexes were diluted to concentrations between 1 nM and 50 nM. […] Then, 20-μl enzyme reactions were carried out in 384-well black flat-bottom low-flange plates (Corning, 35373). DUB activity was measured using IQF K63-linked diubiquitin (LifeSensors, DU6303) at 50 nM. Cleaved diubiquitin was monitored by measuring fluorescence intensity (excitation, 544 nm; emission, 575 nm; dichroic mirror, 560 nm). Fluorescence intensity was measured every minute for 30 min at 30 °C. Fluorescence intensity units were plotted against time to generate a linear reaction progress curve, where the initial velocity (V0) corresponds to the gradient of the curve (typically achieved within 15 min). IC50 values were calculated using the GraphPad Prism (version 9.0) built-in dose–response equation for inhibitor concentration versus response (variable slope).

[2] = biological target: HsBRISCΔLoop (Δ184–208) (Homo sapiens, UniProt P46736+Q15018+Q9NXR7); test: HsBRISCΔLoop IQF DUB activity assay; format: biochemical
Description: as §1, §2

O=C(NC1C2CNCC21)c1nn(C(=O)c2c(Cl)cccc2Cl)cc1NC(=O)c1c(Cl)cccc1Cl (stereo not drawn) [FX-171-C]
IC50 [1]: 4.3 µM | inhibitor sensitivity vs BRISC WT [1]: reduced sensitivity to inhibition | remaining activity at 0.0035 µM ([1]; FX-171-C 0.0035 μM, read-out: Normalised V0): 96% | remaining activity at 0.035 µM ([1]; FX-171-C 0.035 μM, read-out: Normalised V0): 92.5% | remaining activity at 0.35 µM ([1]; FX-171-C 0.35 μM, read-out: Normalised V0): 89.9% | remaining activity at 3.1 µM ([1]; FX-171-C 3.1 μM, read-out: Normalised V0): 51.2% | remaining activity at 6.25 µM ([1]; FX-171-C 6.25 μM, read-out: Normalised V0): 43.9% | remaining activity at 12.5 µM ([1]; FX-171-C 12.5 μM, read-out: Normalised V0): 26.9% | remaining activity at 25 µM ([1]; FX-171-C 25 μM, read-out: Normalised V0): 14.2% | remaining activity at 100 µM ([1]; FX-171-C 100 μM, read-out: Normalised V0): 5.06% | remaining activity at 0.013 µM ([2]; HsBRISCΔLoop, FX-171-C 0.013 μM, read-out: Normalised V0): 87.6% | remaining activity at 0.02 µM ([2]; HsBRISCΔLoop, FX-171-C 0.02 μM, read-out: Normalised V0): 103% | remaining activity at 0.0399999 µM ([2]; HsBRISCΔLoop, FX-171-C 0.0399999 μM, read-out: Normalised V0): 90.4% | remaining activity at 0.0599997 µM ([2]; HsBRISCΔLoop, FX-171-C 0.0599997 μM, read-out: Normalised V0): 102% | remaining activity at 0.0799994 µM ([2]; HsBRISCΔLoop, FX-171-C 0.0799994 μM, read-out: Normalised V0): 93.6% | remaining activity at 0.119998 µM ([2]; HsBRISCΔLoop, FX-171-C 0.119998 μM, read-out: Normalised V0): 102% | remaining activity at 0.199996 µM ([2]; HsBRISCΔLoop, FX-171-C 0.199996 μM, read-out: Normalised V0): 84.1% | remaining activity at 0.499975 µM ([2]; HsBRISCΔLoop, FX-171-C 0.499975 μM, read-out: Normalised V0): 99% | remaining activity at 0.799937 µM ([2]; HsBRISCΔLoop, FX-171-C 0.799937 μM, read-out: Normalised V0): 98.4% | remaining activity at 1.25984 µM ([2]; HsBRISCΔLoop, FX-171-C 1.25984 μM, read-out: Normalised V0): 86.2% | remaining activity at 1.9996 µM ([2]; HsBRISCΔLoop, FX-171-C 1.9996 μM, read-out: Normalised V0): 93.3% | remaining activity at 3.159 µM ([2]; HsBRISCΔLoop, FX-171-C 3.159 μM, read-out: Normalised V0): 82% | remaining activity at 5.19739 µM ([2]; HsBRISCΔLoop, FX-171-C 5.19739 μM, read-out: Normalised V0): 89% | remaining activity at 7.99364 µM ([2]; HsBRISCΔLoop, FX-171-C 7.99364 μM, read-out: Normalised V0): 69.7% | remaining activity at 12.7839 µM ([2]; HsBRISCΔLoop, FX-171-C 12.7839 μM, read-out: Normalised V0): 65.1% | remaining activity at 19.96 µM ([2]; HsBRISCΔLoop, FX-171-C 19.96 μM, read-out: Normalised V0): 50.7% | remaining activity at 31.4999 µM ([2]; HsBRISCΔLoop, FX-171-C 31.4999 μM, read-out: Normalised V0): 45.4% | remaining activity at 50.147 µM ([2]; HsBRISCΔLoop, FX-171-C 50.147 μM, read-out: Normalised V0): 24.3% | remaining activity at 79.7601 µM ([2]; HsBRISCΔLoop, FX-171-C 79.7601 μM, read-out: Normalised V0): 18.2% | change of inhibitor sensitivity on deletion of BRCC36 loop (184–208) ([2]; vs human BRISC): reduced inhibitor sensitivity approximately tenfold
